Tested on: 832693-133-R-J1-PDC multi-cell spheroids, viability
Experiment: Anticancer human tumor 832693-133-R-J1-PDC patient-derived head and neck squamous carcinoma cell line growth inhibition [IpAb]
Conditions: for IC50: curve of first compound; for viability, T/C: stronger effect = lower value
Excerpt: Combinatorial screen of targeted agents with ipatasertib and abemaciclib in multi-cell type tumor spheroids
A high-throughput screen of multi-cell type tumor spheroids was designed to identify active combinations of targeted small molecules and ipatasertib or abemaciclib. Complex spheroids include a stromal component modeled by human endothelial cells (HUVEC) and fibroblasts modeled by human mesenchymal stem cells (MSCs). The concentration ranges selected for each drug and investigational agent were based upon clinically achievable concentrations if the clinical Cmax of the agent was known.
Compounds. The drugs and investigational agents: ipatasertib (NSC767898), abemaciclib(NSC768073), selumetinib (NSC741078), trametinib (758246), adavosertib (NSC754352), everolimus (NSC733504), sapanisertib (NSC764658), vemurafenib (NSC761431), venetoclax (NSC766270), copanlisib (NSC809693), apelisib (NSC765974), palbociblib (NSC758247), vemurafenib (NSC761431), dabrafenib (NSC764134), ravoxertinib (NSC781343), BMS-387032 (NSC767048), sotorasib (NSC818433), talazoparib (NSC767125) and afursertib (NSC778305), were obtained from the National Cancer Institute (NCI) Developmental Therapeutics Program Chemical Repository. The FDA-approved anticancer drug set is available from the NCI Developmental Therapeutics Program. […] The stock solutions were prepared in dimethyl sulfoxide (DMSO, Sigma-Aldrich, St. Louis, MO, cat. D2650) at 800-fold the tested concentration and stored at -70 degrees C prior to their use. All drugs and investigational agents were tested over a range starting from a high concentration at or near the clinical Cmax and decreasing in half-log increments. If the clinical Cmax for an agent had not been determined, the highest concentration tested was 10 microM.
NCI60 Cell Culture. NCI60 cell lines were obtained from the NCI Developmental Therapeutics Program Tumor Repository. For each lot of cells, the Repository performed Applied Biosystems AmpFLSTR Identifiler testing with PCR amplification to confirm consistency with the published Identifier STR profile for each cell line. Cells were kept in continuous culture for no more than 20 passages. The optimal seeding densities for each of the cell lines at each time point assessed were determined prior to performing the concentration response studies. Briefly, the NCI60 human tumor lines were grown as monolayers in RPMI 1640 medium supplemented with 10% FBS and 2 mmol/L L-glutamine.
An additional 9 lines were from the NCI60 cell line panel including MDA-MB-231 breast carcinoma, MDA-MB-468 breast carcinoma, MCF7 breast carcinoma, Hs578T breast carcinoma, MALME-3M melanoma, SK-MEL-2 melanoma, SK-OV-3 ovarian carcinoma, DU-145 prostate carcinoma, PC-3 prostate carcinoma, all cell lines along with major genetic alterations are listed on Table 2. Pooled donor human umbilical vein endothelial cells (HUVEC, Lonza, cat. CC-2519) and human mesenchymal stem cells (hMSC, Lonza, cat. PT-2501) were purchased from Lonza (Walkersville, MD).
PDMR cell lines were grown in complete medium (DC medium): Dulbecco's modified Eagle's medium (DMEM)/F12 supplemented with 5% fetal bovine serum (FBS), 2 mM L-glutamine, 100 U/mL penicillin and 100 µg/ml streptomycin, 0.4 µg/ml hydrocortisone, 10 ng/ml epidermal growth factor (EGF) recombinant human protein, 24 µg/mL adenine, and 0.1 mg/mL primocin. During culture from frozen stock vials, PDMR cells were cultured in the same medium containing 10 µM Y-27632 (see Table 3). The PDCs were cultured in complete DMEM/F12 media without 10 microM Y-27632 dihydrochloride for at least two passages prior to the screen. The pooled donor HUVEC and hMSC were cultured in endothelial cell growth medium 2 (PromoCell, Heidelberg, Germany, cat. C-22011) and mesenchymal stem cell growth medium 2 (PromoCell, cat. C-28009), respectively. For all experiments, HUVEC and hMSC were used at passages </=5.
[…]

[1] = second compound 0.1 µM, first compound 0.0316 µM
[2] = second compound 0.1 µM, first compound 0.1 µM
[3] = second compound 0.1 µM, first compound 0.316 µM
[4] = second compound 0.1 µM, first compound 1 µM
[5] = second compound 0.1 µM, first compound 3.16 µM
[6] = second compound 0.1 µM, first compound 10 µM
[7] = second compound 0.316 µM, first compound 0.0316 µM
[8] = second compound 0.316 µM, first compound 0.1 µM
[9] = second compound 0.316 µM, first compound 0.316 µM
[10] = second compound 0.316 µM, first compound 1 µM
[11] = second compound 0.316 µM, first compound 3.16 µM
[12] = second compound 0.316 µM, first compound 10 µM
[13] = second compound 1 µM, first compound 0.0316 µM
[14] = second compound 1 µM, first compound 0.1 µM
[15] = second compound 1 µM, first compound 0.316 µM
[16] = second compound 1 µM, first compound 1 µM
[17] = second compound 1 µM, first compound 3.16 µM
[18] = second compound 1 µM, first compound 10 µM
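Note: spheroids exposed to the drugs for one week before the viability readout.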
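Throughout, for viability, T/C: 100% = DMSO vehicle control wells.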

SMILES | IC50 (second compound 0.1 µM) [nM] | IC50 (second compound 0.316 µM) [nM] | IC50 (second compound 1 µM) [nM] | viability, T/C [1] [%] | viability, T/C [2] [%] | viability, T/C [3] [%] | viability, T/C [4] [%] | viability, T/C [5] [%] | viability, T/C [6] [%] | viability, T/C [7] [%] | viability, T/C [8] [%] | viability, T/C [9] [%] | viability, T/C [10] [%] | viability, T/C [11] [%] | viability, T/C [12] [%] | viability, T/C [13] [%] | viability, T/C [14] [%] | viability, T/C [15] [%] | viability, T/C [16] [%] | viability, T/C [17] [%] | also measured
CCCS(=O)(=O)Nc1ccc(F)c(C(=O)c2c[nH]c3ncc(-c4ccc(Cl)cc4)cc23)c1F + CC(C)NCC(C(=O)N1CCN(c2ncnc3c2C(C)CC3O)CC1)c1ccc(Cl)cc1 | 8040 | > 10000 | > 10000 | 99.1 | 102 | 92.5 | 91.1 | 88.1 | 41.4 | 79.5 | 79.2 | 93 | 92.9 | 110 | 56.9 | 60.1 | 66.3 | 66.7 | 85.6 | 139 | IC50 (second compound 3.16 µM): > 10000 nM; IC50 (second compound 10 µM): > 10000 nM; viability, T/C [18]: 103%; viability, T/C (second compound 3.16 µM, first compound 0.0316 µM): 54.2%; viability, T/C (second compound 3.16 µM, first compound 0.1 µM): 54.8%; viability, T/C (second compound 3.16 µM, first compound 0.316 µM): 62.6%; viability, T/C (second compound 3.16 µM, first compound 1 µM): 82.2%; viability, T/C (second compound 3.16 µM, first compound 3.16 µM): 126%; viability, T/C (second compound 3.16 µM, first compound 10 µM): 92%; viability, T/C (second compound 10 µM, first compound 0.0316 µM): 53.5%; viability, T/C (second compound 10 µM, first compound 0.1 µM): 60.5%; viability, T/C (second compound 10 µM, first compound 0.316 µM): 61.5%; viability, T/C (second compound 10 µM, first compound 1 µM): 68.7%; viability, T/C (second compound 10 µM, first compound 3.16 µM): 98.8%; viability, T/C (second compound 10 µM, first compound 10 µM): 56.1%
Cc1nc(NC(=O)N2CCCC2C(N)=O)sc1-c1ccnc(C(C)(C)C(F)(F)F)c1 (stereo not given) + CCN1CCN(Cc2ccc(Nc3ncc(F)c(-c4cc(F)c5nc(C)n(C(C)C)c5c4)n3)nc2)CC1 | 138 | 128 | 35.9 | 57.4 | 53.5 | 42.3 | 21.4 | 11.4 | 2.17 | 55.4 | 49.4 | 44.9 | 19.4 | 11.5 | 2.65 | 49.7 | 48 | 37.6 | 25.1 | 14 | IC50 (second compound 0.01 µM): 536 nM; IC50 (second compound 0.0316 µM): 264 nM; viability, T/C (second compound 0.01 µM, first compound 0.0316 µM): 80.1%; viability, T/C (second compound 0.01 µM, first compound 0.1 µM): 87.8%; viability, T/C (second compound 0.01 µM, first compound 0.316 µM): 65.7%; viability, T/C (second compound 0.01 µM, first compound 1 µM): 29.2%; viability, T/C (second compound 0.01 µM, first compound 3.16 µM): 16.2%; viability, T/C (second compound 0.01 µM, first compound 10 µM): 3.69%; viability, T/C (second compound 0.0316 µM, first compound 0.0316 µM): 75.8%; viability, T/C (second compound 0.0316 µM, first compound 0.1 µM): 69%; viability, T/C (second compound 0.0316 µM, first compound 0.316 µM): 46%; viability, T/C (second compound 0.0316 µM, first compound 1 µM): 21.4%; viability, T/C (second compound 0.0316 µM, first compound 3.16 µM): 10.5%; viability, T/C (second compound 0.0316 µM, first compound 10 µM): 3.09%; viability, T/C [18]: 6.29%
